The test system of data set [1] is indomethacin-induced acute gastric ulcers. Briefly: Protection studies of gastric ulceration in vivo (indomethacin-induced acute gastric ulcer, ulcer index). Details: species or system Balb/c mice. As to conditions: for inhibition in ulcer index: 4 h. The method, then:
Animal experiments were carried out using Balb/c mice (20-25 g). Animals were anesthetized with ketamine (12 mg/kg b.w.) prior to cervical dislocation. Control and experimental animals were fasted for 6 hr with free access to water.
Balb/c mice (20-25 g) bred in-house with free access to food and water was used for all experiments. Experiments were designed to minimize animal suffering and to use the minimum number associated with valid statistical evaluation. Animals were anesthetized with ketamine (12 mg/kg b.w.) followed by cervical dislocation. Animal experiments were carried out following the guidelines of animal ethics committee of the institute. Control and experimental animals were fasted for 6 h with free access to water.
Before ulcer induction, animals of both control and experimental groups were kept separately in standard controlled conditions. Acute gastric ulcers were induced by oral administration of indomethacin at a dose of 80 mg/kg b.w. The control group received the vehicle only (olive oil), whereas the experimental group received indomethacin for gastric ulceration. After 4 h, the animals were sacrificed and gastric lesions in the fundic stomach were scored and expressed as obtained by counting the number of red bands/dots as follows: 0=no pathology; 1=a small pinhead ulcer spot; and 2-5=a band like lesion of 2-5 mm length. Total score become ˜50 when ulcer is severe. The sum of the total scores as divided by the number of animals was expressed as the mean ulcer index. Formulations were administered orally 30 min prior to indomethacin treatment to check the gastroprotective effect. Among all the chemical compositions of 3-indolyl furanoids synthesized (table 1), compounds 1, 2, 5, 8, 9 and 12 were tested for prevention studies against gastric inflammation in vivo.

The next data set addresses T1, purified MMP-9 (Homo sapiens, UniProt P14780).
T1 construct: from tissue; host or cells: bronchoalveolar lavage fluid of IPF patients
Briefly: IC50 on purified MMP-9 using gelatin zymography. Type of data set: biochemical, human (IPF patients). The note with it: purified MMP-9, gelatin zymography, three independent experiments. How it is done:
MMP-9 was purified from the bronchoalveolar lavage fluid (BALF) of idiopathic pulmonary fibrosis (IPF) patients as these fluids contain enormous amounts of MMP-9. All purification procedures were carried out at 4° C. Briefly, BALF containing protease inhibitor cocktail (EDTA Free) were centrifuged at 12,000 g for 15 min, and the supernatant was collected and processed for protein purification. […] The enzyme was eluted with 7% dimethyl sulfoxide diluted in the same buffer, and the fractions containing enzyme protein as determined by absorbance at 280 nm were pooled and immediately dialyzed against equilibrating buffer at 4° C. They were then concentrated using Amicon Ultra-15 centrifugal filter devices and protein concentration was determined by Bradford assay. These samples were screened to confirm the presence of MMP-9 and absence of MMP-2 by gelatin zymography and stored at −70° C.
The inventors address the IC50 value of compound 5 towards MMP-9 binding. To evaluate the IC50 value of compound 5 on MMP-9 activity, equal amount of purified MMP-9 was incubated with various concentrations of compound 5 followed by electrophoresis in 8% SDS-PAGE containing 1 mg/mL gelatin under nonreducing conditions.

Data set [2] in a line: Pharmacokinetic profiling in rat. As to conditions: single dose 250 mg/kg oral gavage, male rats, plasma. Type of data set: in vivo, Sprague Dawley rats. How it is done:
Male sprague dawley rats (n=6) received a single dose of 250 mg/kg body weight compound 5 by oral gavage. Compound 5 levels in plasma were determined by HPLC. Values represent mean plasma levels.
Column chromatography was carried out using silica gel 100-200 mesh. Analytical thin-layer chromatography (TLC) was performed with silica gel 60 F254 aluminium sheets. ^1H NMR spectra were recorded on a Bruker DPX 300 MHz or Bruker DRX 600 MHz NMR instrument at ambient temperature in CDCl3, CD3OD or DMSO-d6. ^13C NMR spectra were recorded at 75 MHz or 150 MHz at ambient temperature. The chemical shifts were recorded in parts per million (ppm) with TMS as internal reference. All ^13C NMR spectra were recorded with complete proton decoupling. Mass spectral data refer to EIMS or ESIMS and are recorded in m/z unit. DI-EIMS were recorded on a GC-MS Shimadzu-QP5050A and ESIMS were done on a Waters® Micromass® Q-TOF Mass Spectrometer. Melting points are recorded on a SPAC-N SERVICE (India) melting point apparatus (Laboratory device) in open capillaries and are uncorrected. Elemental analyses were performed by Perkin-Elmer CHN/O analyzer model 2400, series II. HPLC analysis of plasma samples were performed on a Shimadzu Model SPD-M10Avp equipped with LC-10ATvp HPLC pump, Hamamatsu Deuterium Lamp type L6585 photodiode array detector. Chromatography was achieved using a Phenomenex Luna 5 μm C18 (2) 100 Å LC Column (150×4.6 mm I. D.) with Guard Cartridges C18 (4×3.0 mm). The mobile phase consisted of 15% water in acetonitrile, and solutes were eluted using a flow rate 1.0 mL/min. The column was re-equilibrated at initial conditions for 5 min before the next analysis. Analytical HPLC conditions were as follows: column, Pheomenex C18 (250 mm×4.6 mm, particle size 5 μm) with solvent combination of 0.5-1.0% TFA in water:acetonitrile in various ratios at a flow rate of 0.5-1.0 mL/min, detection at 254 nm. Purity of tested compounds was established by analytical reverse phase HPLC, confirming a purity of at least 95%. Unless otherwise stated, reagents were procured from commercial sources and were used without further purification.
In order to assess the time course of action and disposition of compound 5 in vivo, pharmacokinetic studies in Sprague Dawley rats were conducted. The curve was linear in the range investigated and the extraction efficiency was greater than 70%.

Structures are written as SMILES. Several values for one entry are separate records, joined by “and”; a condition that tells them apart may be missing. Equal entries are not always repeated.

Usually inhibition in vivo stands for the percentage by which the read-out fell short of the control. The low end stands for a response near the control, the high end for a response far below the control. For orientation: IC50 means the concentration needed to halve the response being measured. The low end stands for inhibition by little substance, the high end for a need for much substance. Broadly, the Cmax is the highest concentration seen after dosing. A word on the Tmax: it is the time from dosing to the highest level. As a reminder, the half-life is the time in which the quantity being followed falls by half.

T1 sequence (P14780 94-707): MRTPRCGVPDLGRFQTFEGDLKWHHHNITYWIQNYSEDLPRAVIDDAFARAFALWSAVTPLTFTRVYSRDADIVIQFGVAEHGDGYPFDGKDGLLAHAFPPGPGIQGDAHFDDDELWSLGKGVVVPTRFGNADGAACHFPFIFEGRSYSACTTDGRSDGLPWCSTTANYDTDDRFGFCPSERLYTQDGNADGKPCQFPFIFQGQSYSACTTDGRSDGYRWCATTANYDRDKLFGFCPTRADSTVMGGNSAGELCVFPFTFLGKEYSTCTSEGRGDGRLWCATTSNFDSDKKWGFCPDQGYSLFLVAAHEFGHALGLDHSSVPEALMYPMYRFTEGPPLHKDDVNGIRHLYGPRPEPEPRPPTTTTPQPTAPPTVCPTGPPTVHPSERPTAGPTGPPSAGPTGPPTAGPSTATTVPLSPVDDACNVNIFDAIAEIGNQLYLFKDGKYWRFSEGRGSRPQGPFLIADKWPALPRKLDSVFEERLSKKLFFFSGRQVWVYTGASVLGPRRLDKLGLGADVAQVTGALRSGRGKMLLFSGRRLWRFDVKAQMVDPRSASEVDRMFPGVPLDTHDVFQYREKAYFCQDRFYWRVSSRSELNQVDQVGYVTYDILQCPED

`COc1cccc2[nH]cc(-c3cc(-c4ccccc4)oc3-c3ccccc3)c12` [compound 5, 4-methoxy-3-(2,5-diphenylfuran-3-yl)-1H-indole]: the “inhibition in ulcer index” value in data set [1] (10 mg/kg bw oral prior to indomethacin 80 mg/kg) worked out at 40%. In data set [1] (25 mg/kg bw oral prior to indomethacin 80 mg/kg), the “inhibition in ulcer index” value came to 80%. The compound also showed an inhibition in vivo at 50 mg/kg in data set [1] (Mus musculus, 50 mg/kg body weight oral in olive oil, indomethacin 80 mg/kg, scored after 4 h, Balb/c mice) of 95%. The IC50 on purified MMP-9 is ~50 µM and 50 µM. Further, in data set [2] (Sprague-Dawley, rat), the Cmax is 104 µg/mL, the Tmax was roughly 6 h and the half-life is 7 h. Moreover, the “area under the curve” value in data set [2] stood at 1273.8 µg·h/mL.

The values above are taken from patent US10590116B2, “3-indolyl furanoids as inhibitors of matrix metalloproteinase-9 for prevention of gastric ulcer and other inflammatory diseases” (Council of Scientific & Industrial Research, priority 2017, dated 2020).
